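Results reflect a 48-hour exposure of cells in 96-well plates to compound at five concentrations. Abbreviation: GI50, concentration required for 50% inhibition of growth. TGI: concentration producing complete growth inhibition.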
What was measured:
Assay in all cases: NCI tumour cell line growth inhibition, 48 h
HCT-15 colon = tested on: HCT-15 colon
HOP-62 NSCLC = tested on: HOP-62 NSCLC
HOP-92 NSCLC = tested on: HOP-92 NSCLC
KM12 colon = tested on: KM12 colon
NCI-H460 lung = tested on: NCI-H460 lung
OVCAR-3 ovarian = tested on: OVCAR-3 ovarian
RPMI-8226 leukemia = tested on: RPMI-8226 leukemia
SF-295 CNS = tested on: SF-295 CNS
SNB-75 CNS = tested on: SNB-75 CNS
TK-10 renal = tested on: TK-10 renal

Row | SMILES | TGI (HCT-15 colon) [µM] | TGI (HOP-62 NSCLC) [µM] | TGI (HOP-92 NSCLC) [µM] | TGI (KM12 colon) [µM] | TGI (NCI-H460 lung) [µM] | TGI (OVCAR-3 ovarian) [µM] | TGI (RPMI-8226 leukemia) [µM] | TGI (SF-295 CNS) [µM] | TGI (SNB-75 CNS) [µM] | TGI (TK-10 renal) [µM] | GI50 (HCT-15 colon) [µM] | GI50 (HOP-62 NSCLC) [nM] | GI50 (HOP-92 NSCLC) [nM] | GI50 (KM12 colon) [µM] | GI50 (NCI-H460 lung) [nM] | GI50 (OVCAR-3 ovarian) [µM] | GI50 (RPMI-8226 leukemia) [nM] | GI50 (SF-295 CNS) [nM] | GI50 (SNB-75 CNS) [nM] | GI50 (TK-10 renal) [µM]
1 | O=c1oc2cc(O)ccc2cc1-c1nc2ccccc2o1 | > 100 | > 100 | 78.3 | 93 | > 100 | 61.8 | 75.8 | > 100 | > 100 | > 100 |  |  |  |  |  |  |  |  |  | 
2 | NC(=O)c1c(-c2ccccc2)c(-c2ccccc2)cc2c(=O)c3ccccc3[nH]c12 | > 100 | 58.5 | 55.5 | 78.6 | 76.8 | 46.4 | > 100 | > 100 | 41.7 | 35.6 |  |  |  |  |  |  |  |  |  | 
3 | O=C(Nc1cccc2[nH]c(C(F)(F)F)nc12)c1ccc(Br)cc1F | 14.1 | 8.88 | 4.1 | 12 | 12.4 | 16.8 | 7.9 | 10.3 | 18 | 9.55 | 3.33 | 2430 | 1380 | 3.29 | 3450 | 3.62 | 2440 | 2940 | 2680 | 3.43
4 | O=S(=O)(c1ccccc1)C1(C2(S(=O)(=O)c3ccccc3)CCN=N2)CCN=N1 (configuration not stated) | > 100 |  |  | > 100 | > 100 | > 100 | > 100 | > 100 | > 100 | > 100 |  |  |  |  |  |  |  |  |  | 
5 | O=[N+]([O-])C(=C1c2ccccc2-c2ccccc21)[N+](=O)[O-] | > 10 | > 100 |  | > 100 | > 100 | > 100 | > 100 | > 10 |  | > 100 |  |  |  |  |  |  |  |  |  | 
6 | CN(COC(=O)C(C)(C)C)c1nc(N(C)COC(=O)C(C)(C)C)nc(N(C)COC(=O)C(C)(C)C)n1 | 43.9 | > 100 |  | > 100 | > 100 | > 100 |  | > 100 | > 100 | > 100 |  |  |  |  |  |  |  |  |  | 
7 | CN1C=C(C(N)=O)Cc2ccsc21 | > 100 | > 100 | > 100 | > 100 | > 100 | > 100 | > 100 | > 100 | > 100 |  |  |  |  |  |  |  |  |  |  | 
8 | O=S(=O)([O-])c1ccc(C=Nc2ccccc2)c([O-])c1.O=S(=O)([O-])c1ccc(C=Nc2ccccc2)c([O-])c1.[Co+2] | > 100 |  | > 100 | > 100 |  | > 100 | > 100 | > 100 | > 100 | > 100 | 45.5 |  | > 100000 | 65.4 |  | > 100 | > 100000 | > 100000 | > 100000 | > 100
9 | Nc1ncnc2c1ncn2C1(CO)OC(CO)C(O)C1O (configuration not stated) | > 100 | > 100 | > 100 | > 100 | > 100 |  | > 100 | > 100 | > 100 | > 100 |  |  |  |  |  |  |  |  |  | 
10 | NC(=O)c1c(NC(=O)c2ccc(C(F)(F)F)cc2Cl)sc2c1CCC(=O)C2 |  | > 44.5 | 2.88 | 1.73 | 9.48 | 1.33 |  | 4.5 |  | 4.07 |  | 1250 | 426 | 0.382 | 1290 | 0.369 |  | 1050 |  | 0.423
